Results from patent US9458092B2, “α-Substituted glycinamide derivative” (KISSEI PHARMACEUTICAL CO., LTD., priority 2013, dated 2016).

The compounds below were run against TRPM8 (Rattus norvegicus, UniProt Q8R455) (assay: Confirmation test of inhibitory effects on icilin-induced wet-dog shakes). Conditions: dose 3 mg/kg orally, icilin 1 mg/kg i.p. after 1 hour, shakes counted for 5 minutes.
Assay type: in vivo, female SD rats
Design: test compounds were orally administered to female SD rats; from tissue; host or cells: whole animal (female SD rats), endogenous channel
Description: Test compounds were dissolved in dimethylacetamide (wako), and 0.5% methylcellulose solution (wako) was added to make the solution or suspension containing 5% of dimethylacetamide. At a dose of 3 or 10 mg/kg/5 mL of test compounds were orally administered to female SD rats. After 1 hour, wet-dog shakes were induced by the intrapenitoneal injection of icilin (1 mg/kg) which was dissolved in polyethylene glycol 400 (wako). From 5 minutes after the administration of icilin, wet-dog shakes were counted for 5 minutes. For control example, vehicle (a mixture of dimethylacetamide (wako): 0.5% methylcellulose (wako)=5:95) was administrated similarly, and the number of wet-dog shakes was counted in the same manner. A percent inhibition of wet-dog shakes by test compound was calculated from the following formula: [1-(test compound wet-dog shake count/vehicle wet-dog shake count)]×100.

Sequence of TRPM8 (Q8R455 whole entry): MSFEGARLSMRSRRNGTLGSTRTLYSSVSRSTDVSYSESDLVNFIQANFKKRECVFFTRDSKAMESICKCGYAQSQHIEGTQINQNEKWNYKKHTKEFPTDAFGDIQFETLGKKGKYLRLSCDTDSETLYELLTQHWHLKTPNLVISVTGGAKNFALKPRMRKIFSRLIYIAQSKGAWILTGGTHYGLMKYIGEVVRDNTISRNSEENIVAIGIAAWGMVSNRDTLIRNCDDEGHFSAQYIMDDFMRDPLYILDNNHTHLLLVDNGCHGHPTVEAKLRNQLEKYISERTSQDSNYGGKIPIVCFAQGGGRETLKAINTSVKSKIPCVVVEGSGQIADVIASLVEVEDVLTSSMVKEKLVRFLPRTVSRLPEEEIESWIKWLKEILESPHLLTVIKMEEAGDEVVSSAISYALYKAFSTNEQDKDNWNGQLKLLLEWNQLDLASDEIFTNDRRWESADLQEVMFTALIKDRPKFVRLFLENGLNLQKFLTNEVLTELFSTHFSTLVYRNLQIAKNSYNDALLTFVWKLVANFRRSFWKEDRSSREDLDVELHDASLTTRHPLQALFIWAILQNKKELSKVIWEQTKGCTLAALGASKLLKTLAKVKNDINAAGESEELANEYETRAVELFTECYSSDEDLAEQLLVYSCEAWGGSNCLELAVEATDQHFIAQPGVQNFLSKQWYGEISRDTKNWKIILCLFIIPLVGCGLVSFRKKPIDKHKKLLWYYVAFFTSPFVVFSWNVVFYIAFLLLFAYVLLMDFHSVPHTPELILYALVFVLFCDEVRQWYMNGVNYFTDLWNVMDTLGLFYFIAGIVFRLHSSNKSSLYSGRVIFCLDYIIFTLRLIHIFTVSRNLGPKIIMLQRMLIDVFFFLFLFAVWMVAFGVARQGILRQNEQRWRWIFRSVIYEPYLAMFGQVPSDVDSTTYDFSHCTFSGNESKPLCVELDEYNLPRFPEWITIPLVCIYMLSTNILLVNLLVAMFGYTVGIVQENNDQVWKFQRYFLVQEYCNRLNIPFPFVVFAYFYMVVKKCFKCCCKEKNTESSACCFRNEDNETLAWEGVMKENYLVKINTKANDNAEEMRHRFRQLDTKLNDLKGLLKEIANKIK

Compound | % inhibition of Wet-Dog Shake [%]
NC(=O)[C@@H](c1ccccc1)N(C(=O)c1ccccc1)[C@@H]1COc2c(F)cc(Cl)cc21 (racemic) [Example 2-252M, N-[(RS)-carbamoylphenylmethyl]-N-[(SR)-5-chloro-7-fluoro-2,3-dihydrobenzofuran-3-yl]benzamide] | 31
NC(=O)[C@@H](c1cccnc1)N(C(=O)c1ccccc1)[C@@H]1CCc2ccc(Cl)cc21 [Example 2-87LP, N-[(R)-carbamoylpyridin-3-ylmethyl]-N-[(R)-6-chloroindan-1-yl]benzamide] | 36
Cc1ncsc1C(=O)N([C@@H]1CCc2ccc(Cl)cc21)[C@@H](C(N)=O)c1ccccc1 [Example 2-88LP, N-[(R)-carbamoylphenylmethyl]-N-[(R)-6-chloroindan-1-yl]-4-methylthiazole-5-carboxamide] | 46
Cc1ncsc1C(=O)N([C@@H]1CCc2c(F)cc(F)cc21)[C@@H](C(N)=O)c1ccccc1 [Example 2-132LP, N-[(R)-carbamoylphenylmethyl]-N-[(R)-4,6-difluoroindan-1-yl]-4-methylthiazole-5-carboxamide] | 49
NC(=O)[C@@H](c1cccnc1)N(C(=O)c1cccc2c1OCO2)[C@@H]1CCc2c(F)cc(Cl)cc21 [Example 2-172LP, N-[(R)-carbamoylpyridin-3-ylmethyl]-N-[(R)-6-chloro-4-fluoroindan-1-yl]benzo[1,3]dioxole-4-carboxamide] | 43

Results, then the compound that gave them:

% inhibition of Wet-Dog Shake [%] | Compound
74 | COc1ncccc1C(=O)N([C@@H]1CCc2c(F)cc(F)cc21)[C@@H](C(N)=O)c1ccccc1 [Example 2-36LP, N-[(R)-carbamoylphenylmethyl]-N-[(R)-4,6-difluoroindan-1-yl]-2-methoxynicotinamide]
100 | NC(=O)[C@@H](c1ccccc1)N(C(=O)c1cccnc1Cl)[C@@H]1CCc2c(F)cc(Cl)cc21 [Example 2-93LP, N-[(R)-carbamoylphenylmethyl]-2-chloro-N-[(R)-6-chloro-4-fluoroindan-1-yl]nicotinamide]
35 | NC(=O)[C@@H](c1cccnc1)N(C(=O)c1ccccc1Cl)[C@@H]1CCc2c(F)cc(Cl)cc21 [Example 2-97LP, N-[(R)-carbamoylpyridin-3-ylmethyl]-2-chloro-N-[(R)-6-chloro-4-fluoroindan-1-yl]benzamide]
47 | Cc1ccncc1C(=O)N([C@@H]1CCc2c(F)cc(Cl)cc21)[C@@H](C(N)=O)c1ccccc1 [Example 2-100LP, N-[(R)-carbamoylphenylmethyl]-N-[(R)-6-chloro-4-fluoroindan-1-yl]-4-methylnicotinamide]
68 | CNc1ncccc1C(=O)N([C@@H]1CCc2c(F)cc(Cl)cc21)[C@@H](C(N)=O)c1ccccc1 [Example 2-107LP, N-[(R)-carbamoylphenylmethyl]-N-[(R)-6-chloro-4-fluoroindan-1-yl]-2-(methylamino)nicotinamide]
62 | COc1ccccc1C(=O)N([C@@H]1CCc2c(F)cc(Cl)cc21)[C@@H](C(N)=O)c1cccnc1 [Example 2-118LP, N-[(R)-carbamoylpyridin-3-ylmethyl]-N-[(R)-6-chloro-4-fluoroindan-1-yl]-2-methoxybenzamide]
37 | CSc1ncccc1C(=O)N([C@@H]1CCc2ccc(Cl)cc21)[C@@H](C(N)=O)c1ccccc1 [Example 2-125LP, N-[(R)-carbamoylphenylmethyl]-N-[(R)-6-chloroindan-1-yl]-2-(methylsulfanyl)nicotinamide]
65 | CSc1ncccc1C(=O)N([C@@H]1CCc2c(F)cc(Cl)cc21)[C@@H](C(N)=O)c1ccccc1 [Example 2-128LP, N-[(R)-carbamoylphenylmethyl]-N-[(R)-6-chloro-4-fluoroindan-1-yl]-2-(methylsulfanyl)nicotinamide]
55 | Cn1nccc1C(=O)N([C@@H]1CCc2c(F)cc(Cl)cc21)[C@@H](C(N)=O)c1ccccc1 [Example 2-133LP, N-[(R)-carbamoylphenylmethyl]-N-[(R)-6-chloro-4-fluoroindan-1-yl]-2-methyl-2H-pyrazole-3-carboxamide]
53 | Cc1ncccc1C(=O)N([C@@H]1CCc2ccc(Cl)cc21)[C@@H](C(N)=O)c1ccccc1 [Example 2-137LP, N-[(R)-carbamoylphenylmethyl]-N-[(R)-6-chloroindan-1-yl]-2-methylnicotinamide]
49 | Cc1cnoc1C(=O)N([C@@H]1CCc2c(F)cc(Cl)cc21)[C@@H](C(N)=O)c1ccccc1 [Example 2-150LP, N-[(R)-carbamoylphenylmethyl]-N-[(R)-6-chloro-4-fluoroindan-1-yl]-4-methylisoxazole-5-carboxamide]
44 | Cc1cccnc1C(=O)N([C@@H]1CCc2c(F)cc(Cl)cc21)[C@@H](C(N)=O)c1ccccc1 [Example 2-152LP, N-[(R)-carbamoylphenylmethyl]-N-[(R)-6-chloro-4-fluoroindan-1-yl]-3-methylpyridine-2-carboxamide]
36 | Cc1ncncc1C(=O)N([C@@H]1CCc2c(F)cc(Cl)cc21)[C@@H](C(N)=O)c1ccccc1 [Example 2-154LP, N-[(R)-carbamoylphenylmethyl]-N-[(R)-6-chloro-4-fluoroindan-1-yl]-4-methylpyrimidine-5-carboxamide]
42 | Cc1ncccc1C(=O)N([C@@H]1CCc2c(F)cc(Cl)cc21)[C@@H](C(N)=O)c1cccc(F)c1 [Example 2-161LP, N-[(R)-carbamoyl-(3-fluorophenyl)methyl]-N-[(R)-6-chloro-4-fluoroindan-1-yl]-2-methylnicotinamide]
64 | Cc1cnccc1C(=O)N([C@@H]1CCc2c(F)cc(Cl)cc21)[C@@H](C(N)=O)c1ccccc1 [Example 2-167LP, N-[(R)-carbamoylphenylmethyl]-N-[(R)-6-chloro-4-fluoroindan-1-yl]-3-methylisonicotinamide]
36 | Cc1ncccc1C(=O)N([C@@H]1CCc2c(F)cc(Cl)cc21)[C@@H](C(N)=O)c1cccc(O)c1 [Example 2-168LP, N-[(R)-carbamoyl-(3-hydroxyphenyl)methyl]-N-[(R)-6-chloro-4-fluoroindan-1-yl]-2-methylnicotinamide]
99 | NC(=O)[C@@H](c1ccccc1)N(C(=O)c1cccc2c1OCO2)[C@@H]1CCc2c(F)cc(Cl)cc21 [Example 2-173LP, N-[(R)-carbamoylphenylmethyl]-N-[(R)-6-chloro-4-fluoroindan-1-yl]benzo[1,3]dioxole-4-carboxamide]

Same assay, conditions: dose 10 mg/kg orally, icilin 1 mg/kg i.p. after 1 hour, shakes counted for 5 minutes

Compound | % inhibition of Wet-Dog Shake [%]
COc1ccc2c(c1)[C@H](N(C(=O)c1cccnc1)[C@@H](C(N)=O)c1ccccc1)CC2 [Example 1-6, N-[(R)-Carbamoylphenylmethyl]-N-[(R)-6-methoxyindan-1-yl]nicotinamide] | 64
NC(=O)[C@@H](c1ccccc1)N(C(=O)c1ccccc1)[C@@H]1CCc2ccc(OC(F)F)cc21 [Example 2-11LP, N-[(R)-carbamoylphenylmethyl]-N-[(R)-6-difluoromethoxyindan-1-yl]benzamide] | 85
NC(=O)[C@@H](c1ccccc1)N(C(=O)c1cccnc1)[C@@H]1CCc2ccc(OC(F)F)cc21 [Example 2-26LP, N-[(R)-carbamoylphenylmethyl]-N-[(R)-6-difluoromethoxyindan-1-yl]nicotinamide] | 83
NC(=O)[C@@H](c1ccccc1)N(C(=O)c1cccnc1N)[C@@H]1CCc2ccc(OC(F)F)cc21 [Example 2-27LP, 2-amino-N-[(R)-carbamoylphenylmethyl]-N-[(R)-6-difluoromethoxyindan-1-yl]nicotinamide] | 95
COc1cc(F)c2c(c1)[C@H](N(C(=O)c1cccnc1)[C@@H](C(N)=O)c1ccccc1)CC2 [Example 2-39LP, N-[(R)-carbamoylphenylmethyl]-N-[(R)-4-fluoro-6-methoxyindan-1-yl]nicotinamide] | 98
NC(=O)[C@@H](c1ccccc1)N(C(=O)c1cccnc1)[C@@H]1CCc2c(F)cccc21 [Example 2-56LP, N-[(R)-carbamoylphenylmethyl]-N-[(R)-4-fluoroindan-1-yl]nicotinamide] | 50
NC(=O)[C@@H](c1ccccc1)N(C(=O)c1cncs1)[C@@H]1CCc2ccc(Cl)cc21 [Example 2-71LP, N-[(R)-carbamoylphenylmethyl]-N-[(R)-6-chloroindan-1-yl]thiazole-5-carboxamide] | 83
NC(=O)[C@@H](c1cccnc1)N(C(=O)c1ccccc1)[C@@H]1CCc2c(F)cc(F)cc21 [Example 2-76LP, N-[(R)-carbamoylpyridin-3-ylmethyl]-N-[(R)-4,6-difluoroindan-1-yl]benzamide] | 95

Next, values leading:

% inhibition of Wet-Dog Shake [%] | Compound
98 | NC(=O)[C@@H](c1ccccc1)N(C(=O)c1cccnc1N)[C@@H]1CCc2ccc(Cl)cc21 [Example 2-33LP, 2-amino-N-[(R)-carbamoylphenylmethyl]-N-[(R)-6-chloroindan-1-yl]nicotinamide]
95 | Cc1cc(F)c2c(c1)[C@H](N(C(=O)c1cccnc1)[C@@H](C(N)=O)c1ccccc1)CC2 [Example 2-40LP, N-[(R)-carbamoylphenylmethyl]-N-[(R)-4-fluoro-6-methylindan-1-yl]nicotinamide]
